How the values were obtained:
[1] = system: erbB-1- and/or erbB 2-expressing carcinoma cell lines; settings: read-out: cellular IC50, preclinical data; cited from earlier work
[2] = system: metastatic erbB-2 positive breast cancer; assay: phase 2 trial of neratinib as a single agent in subjects with metastatic erbB-2 positive breast cancer; type: in vivo, human; settings: for median progression-free survival (PFS) / overall response rate (ORR): independent radiology assessment, preliminary data
Text: Neratinib as a single agent has been studied in a phase 2 trial in subjects with metastatic erbB-2 positive breast cancer.

[3] = Arm A: subjects with prior trastuzumab treatment
[4] = Arm B: subjects without prior exposure to trastuzumab

Structure (SMILES): CCOc1cc2ncc(C#N)c(Nc3ccc(OCc4ccccn4)c(Cl)c3)c2cc1NC(=O)/C=C/CN(C)C [neratinib, (2E)-N-[4-[[3-chloro-4-[(pyridin-2-yl)methoxy]phenyl]amino]-3-cyano-7-ethoxyquinolin-6-yl]-4-(dimethylamino)but-2-enamide]
- IC50 [1]: < 100 nM
- median progression-free survival (PFS) [2, 3]: 23 weeks
- overall response rate (ORR) [2, 3]: 26%
- median progression-free survival (PFS) [2, 4]: 40 weeks
- overall response rate (ORR) [2, 4]: 57%
- main adverse event ([2]; generally well manageable with medication, treatment interruption, or dose modification): diarrhea
- other common adverse events ([2]; human, in vivo): nausea, vomiting, fatigue, and anorexia

Reference: patent US9211291B2, “Treatment regimen utilizing neratinib for breast cancer” (WYETH LLC, priority 2009, dated 2015)
